Structures can show the parent of a compound that is named as a salt.
tested on: MTT (mouse pheochromocytoma); test: IC50 of cell viability (ATP content); settings: (24 or 48 h)
In short: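 Each well of a white 1536-well plate received 5 µl of MTT mouse pheochromocytoma cells at 200,000 cells/ml in DMEM containing 5% FBS and 1% horse serum. After overnight culture at 37°C, 5% CO2, cells were exposed for 24 or 48 hrs to 23 nl of library compound in DMSO, pinned at 8 final concentrations from 0.5 nM to 46 µM. CellTiter-Glo luminescence was read after 15 minutes, and IC50 was obtained from a four-parameter logistic fit of signals normalised to positive-control and DMSO wells.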

Row | SMILES | IC50 of cell viability [µM]
1 | NNc1ccccc1 [PHENYLHYDRAZINE HYDROCHLORIDE] | > 46
2 | CC1CC(OC(=O)C(O)c2ccccc2)CC(C)(C)C1 (stereo not given) [CYCLANDELATE] | > 46
3 | CC(N)C(=O)c1ccccc1 [(R)-(+)-Cathinone] | > 46
4 | COc1cc(C(=O)N2CCOCC2)cc(OC)c1OC [Trimetozine] | > 46
5 | N[S+](=O)([O-])c1cc2c(cc1C(F)(F)F)NCN[S+]2(=O)[O-] [Hydroflumethiazide] | > 46
6 | CC[S+](=O)([O-])CCn1c([N+](=O)[O-])cnc1C [Tinidazole] | > 46
7 | CC(=O)OCC1=C(C(=O)[O-])N2C(=O)C(NC(=O)Cc3ccccc3)C2SC1 (stereo not given) [Cefaloram] | > 46
8 | COc1ccc(/C=C/C(=O)O)cc1 [DIETHANOLAMINE METHOXYCINNAMATE] | > 46
9 | C[N+]1(C)C2CCC1CC(OC(=O)c1c[nH]c3ccccc13)C2.[I-] (stereo not given) [3-Tropanylindole-3-carboxylate methiodide] | > 46
10 | CC(C)(S)C(=O)NC(CS)C(=O)O (stereo not given) [Bucillamine] | > 46
11 | N[C@H](CO)C(=O)O [D-SERINE] | > 46
12 | OC(c1ccccc1)(c1ccccc1)C1CN2CCC1CC2 (stereo not given) [Quifenadine] | > 46
13 | CC/1=C/N(C(=O)/C=C1)C2=CC=CC=C2 [Pirfenidone] | > 46
14 | [Na+].CO[C@H]1[C@@H](OC(N)=O)[C@@H](O)[C@H](OC2=C(C)C3=C(C=C2)\C(=C(\NC(=O)C4=CC(=C([O-])C=C4)CC=C(C)C)C(=O)O3)O)OC1(C)C [Novobiocin sodium salt] | > 46
15 | COCC(=O)Nc1c(I)c(C(=O)NC[C@@H](O)CO)c(I)c(C(=O)N(C)C[C@@H](O)CO)c1I [Iopromide] | > 46
16 | CCC(=O)O[C@]1([C@@H](C)C[C@H]2[C@H]3C[C@@H](F)\C4=C\C(=O)\C=C/[C@@]4(C)[C@@]3(F)[C@@H](O)C[C@]12C)C(=O)SCF [Fluticasone propionate] | > 46
17 | O=[S+]([O-])(O)c1cc(I)c(O)c2ncccc12 [CHINIOFONUM] | > 46
18 | OC[C@@H](O)[C@H]1O[C@@H]2OC(C(Cl)(Cl)Cl)O[C@H]2[C@H]1O (stereo not given in full) [CHLORALOSUM] | > 46
19 | CCC[C@H]1C[C@H](C(=O)NC(C(C)Cl)C2O[C@@H](SC)C(OP(=O)(O)O)[C@@H](O)[C@@H]2O)N(C)C1 (stereo not given in full) [CLINDAMYCIN PO4] | > 46
20 | CN/C(=N\c1ccc(C2=NNC(=O)CC2C)cc1)NC#N (stereo not given) [Siguazodan] | > 46
21 | COc1ccc2c(c1)N(C[C@@H](C)CN(C)C)c1ccccc1S2 [Methotrimeprazine maleat salt] | > 46
22 | CCC(=O)OC1(c2ccccc2)CCN(C)CC1C (stereo not given) [BETAPRODINUM] | > 46
23 | CCCN(CCC)CCc1c[nH]c2ccccc12 [N,N-Dipropyltryptamine] | > 46
24 | C\C1=C\N([C@H]2C[C@H](N=[N+]=[N-])[C@@H](CO)O2)C(=O)NC1=O [ZIDOVUDINE] | > 46

Row | SMILES | IC50 of cell viability [µM]
25 | CN1[C@@H]2CC[C@@H]1CC(OC(=O)[C@H](CO)c1ccccc1)C2 (stereo not given in full) [ATROPINE] | > 46
26 | CN1\C(=C(\O)C2=C(C=CC=C2)[S+]1([O-])=O)C(=O)NC3=CC=CC=N3 [Piroxicam] | > 46
27 | O=C(OCCOCCO)c1ccccc1Nc1cccc(C(F)(F)F)c1 [Etofenamate] | > 46
28 | c1ccc(CNCCNCc2ccccc2)cc1 [N,N'-DIBENZYLETHYLENEDIAMMONIUM DI(ACETATE)] | > 46
29 | Cn1c(=O)c2c(ncn2CCO)n(C)c1=O [7-(beta-HYDROXYETHYL)THEOPHYLLINE] | > 46
30 | CC(O)CCCCn1c(=O)c2c(ncn2C)n(C)c1=O (stereo not given) [Lisofylline] | > 46
31 | O=C(O)c1ccc(OCCn2ccnc2)cc1 [DAZOXIBENUM] | > 46
32 | Cl.O=C(COc1ccc(Cl)cc1)N1CCN(Cc2ccc3c(c2)OCO3)CC1 [FIPEXIDE HYDROCHLORIDE] | > 46
33 | [H][C@]12CC[N@@]3CC=C(COC(=O)[C@](C)(O)[C@](C)(O)[C@@]([H])(C)C(=O)O1)[C@]23[H] [Monocrotaline] | > 46
34 | NC(CSSCC(N)C(=O)O)C(=O)O (stereo not given) [CYSTINE] | > 46
35 | CCCCN1CC(O)C(O)C(O)C1CO (stereo not given) [MIGLUSTAT] | > 46
36 | C[N+]1(C)CCN(C[C@@](O)(c2ccccc2)C2CCCCC2)CC1 [Hexocyclium methosulfate] | > 46
37 | CC(C)CCOC(=O)c1ccc(N(C)C)cc1 [Padimato] | > 46
38 | COc1ccc2c(c1)OC(C)(C)C(c1ccccc1)C2c1ccc(OCCN2CCCC2)cc1 (stereo not given) [ORMELOXIFENUM] | > 46
39 | Cl.N[C@@H]1C(O)OC(CO)C(O)C1O (stereo not given in full) [GLUCOSAMINE HYDROCHLORIDE] | > 46
40 | O=C1N(c2ccccc2)c2ccccc2C1(Cc1ccncc1)Cc1ccncc1 [Linopirdine dihydrochloride] | > 46
41 | CCCCCC(N)=O [Hexanamide] | > 46
42 | COCCCOc1ccnc(C[S+]([O-])c2nc3ccccc3[n-]2)c1C (stereo not given) [RABEPRAZOLE SODIUM] | > 46
43 | O=C(COCCOCCOCC(=O)Nc1c(I)cc(I)c(C(=O)O)c1I)Nc1c(I)cc(I)c(C(=O)O)c1I [Biliscopin] | > 46
44 | CC(C)(C)c1ccc(CN2CCN([C@H](c3ccccc3)c3ccc(Cl)cc3)CC2)cc1 [Buclodin] | > 46
45 | O=C1Oc2ccccc2C(=O)C1C(CC(O)c1ccc(-c2ccc(Br)cc2)cc1)c1ccccc1 (stereo not given) [BOLDO] | > 46
46 | CC(C)(C)c1ccc2c(S(=O)(=O)[O-])c(C(C)(C)C)ccc2c1 [Dibunic acid] | > 46
47 | O=C1C=C(CO)OCC1=O [Kojic acid] | > 46
48 | CC[C@H]1OC(=O)[C@H](C)[C@@H](O[C@H]2C[C@@](C)(OC)[C@@H](O)[C@H](C)O2)[C@H](C)[C@@H](O[C@@H]2O[C@H](C)C[C@H](N(C)C)[C@H]2O)[C@](C)(O)C[C@@H](C)[C@@H]2N[C@@H](COCCOC)O[C@H]([C@H]2C)[C@]1(C)O [DIRITHROMYCIN] | > 46

Row | SMILES | IC50 of cell viability [µM]
49 | C/C=C/C=C/C(=O)O [Sorbic acid] | > 46
50 | CC(C)=CCN1CC[C@@]2(C)c3cc(O)ccc3C[C@@H]1C2C (single isomer, unassigned; (-)) [(-)-Pentazocine] | > 46
51 | COCC1=C(C(=O)OC(C)OC(=O)OC(C)C)N2C(=O)C(NC(=O)/C(=N\OC)c3csc(N)n3)C2SC1 (stereo not given) [Cefpodoxime proxetil] | > 46
52 | CC(=O)/N=c1/sc([S+](N)(=O)[O-])nn1C [Methazolamide] | > 46
53 | COC(=O)c1ccccc1C(=O)OC [Dimethyl phthalate] | > 46
54 | CCCCC/C=C/C/C=C/CCCCCCCC(=O)OCC [ETHYL LINOLEATE] | > 46
55 | CCC(=O)[O-] [Propionic acid] | > 46
56 | Nc1ccc([S+](=O)([O-])Nc2ncccn2)cc1 [Sulfadiazine] | > 46
57 | CCCCCNC(=N)N/N=C/c1c[nH]c2ccc(OC)cc12 [TEGASEROD] | > 46
58 | CN1C[C@@H](NS(=O)(=O)N(C)C)C[C@@H]2c3cccc4c3c(cn4C)C[C@H]21 [MESULERGINE] | > 46
59 | CCN1CCC[C@H]1CNC(=O)c1cc([S+](N)(=O)[O-])ccc1OC [Levosulpiride] | > 46
60 | CN1[C@@H]2CC[C@H]1C[C@@H](OC(c1ccccc1)c1ccccc1)C2 [Benzatropina] | > 46
61 | Cc1cccc(N(C)C(=S)Oc2ccc3ccccc3c2)c1 [Tolnaftate] | > 46
62 | CC12CCC3C4CCC(=O)C(O)=C4CCC3C1CCC2OC(=O)CCC1CCCC1 (stereo not given) [OXABOLONE CIPIONATE] | > 46
63 | NC(=S)N/N=C/c1cccnc1 [Nicothiazone] | > 46
64 | CC(C)N(CC[C@@](C(N)=O)(c1ccccc1)c1ccccn1)C(C)C [Disopyramide] | > 46
65 | OCC(O)[C@H]1O[C@@H]2O[C@H](C(Cl)(Cl)Cl)O[C@@H]2[C@H]1O (stereo not given in full) [CHLORALOSUM] | > 46
66 | C[C@]12CC[C@@H]3c4ccc(O)cc4C[C@@H](CCCCCCCCC[S+]([O-])CCCC(F)(F)C(F)(F)F)C3[C@@H]1CC[C@@H]2O (stereo not given in full) [Fulvestrant] | > 46
67 | CC(=O)OCC(=O)[C@@]1(O)CCC2C3C[C@H](C)C4=CC(=O)C=CC4(C)C3C(O)CC21C (stereo not given in full) [Methylprednisolone acetate] | > 46
68 | CCOc1ccc(NC(=O)CC(C)O)cc1 (stereo not given) [Bucetin] | > 46
69 | N[S+]([O-])(=O)C1=C(Cl)C=C2\N=C(\CSCC3=CC=CC=C3)N[S+]([O-])(=O)C2=C1 [Benzthiazide] | > 46
70 | OC\C1=C\C(=O)\C(=C/O1)O [KOJIC ACID] | > 46

Source: the supplement of paper PMC3974653
